In PubChem BioAssay (NCI):
Several values for one entry are separate records, joined by “and”; a condition that tells them apart may be missing. Identical values can stand only once.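 Assay format: 96-well plates, 48-hour exposure. At the GI50, growth is halved. TGI is the concentration that stops growth completely.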

How the values were obtained:
Test in all cases: inhibition of tumour cell growth, NCI panel, 48 h
DU-145 prostate = test system: DU-145 prostate
NCI-H522 lung = test system: NCI-H522 lung
NCI/ADR-RES ovarian = test system: NCI/ADR-RES ovarian
OVCAR-3 ovarian = test system: OVCAR-3 ovarian
OVCAR-5 ovarian = test system: OVCAR-5 ovarian
SF-295 CNS = test system: SF-295 CNS
SF-539 CNS = test system: SF-539 CNS
SK-MEL-2 melanoma = test system: SK-MEL-2 melanoma
SN12C renal = test system: SN12C renal
UO-31 renal = test system: UO-31 renal

SMILES	GI50 (DU-145 prostate)	TGI (DU-145 prostate)	GI50 (NCI-H522 lung)	TGI (NCI-H522 lung)	GI50 (NCI/ADR-RES ovarian)	TGI (NCI/ADR-RES ovarian)	GI50 (OVCAR-3 ovarian)	TGI (OVCAR-3 ovarian)	GI50 (OVCAR-5 ovarian)	TGI (OVCAR-5 ovarian)	GI50 (SF-295 CNS)	TGI (SF-295 CNS)	GI50 (SF-539 CNS)	TGI (SF-539 CNS)	GI50 (SK-MEL-2 melanoma)	TGI (SK-MEL-2 melanoma)	GI50 (SN12C renal)	TGI (SN12C renal)	GI50 (UO-31 renal)	TGI (UO-31 renal)
C/C([O-])=C1\Cc2ccccc2C1=O.C/C([O-])=C1\Cc2ccccc2C1=O.CC[O-].CC[O-].[Ti+4]	26.4 µM	> 100 µM	14.2 µM	47.6 µM	23.4 µM	> 100 µM	24 µM	> 100 µM	30.5 µM	72.9 µM	14.5 µM	32 µM	13.6 µM	33.1 µM	13.5 µM	33.6 µM	21.5 µM	> 81.6 µM	20.2 µM	70.6 µM
COc1ccc2c(c1)c(-c1nc(-c3c[nH]c4ncccc34)cs1)cn2CCCCN1CCOCC1	3.07 µM	9.76 µM	2.34 µM	4.31 µM	2.34 µM	5.78 µM	1.87 µM	3.74 µM	1.99 µM	4.02 µM	1.93 µM	4.07 µM	1.67 µM	3.11 µM	1.97 µM	3.83 µM	1.91 µM	4.19 µM	1.43 µM	3.23 µM
O=C1/C(=C/c2ccccc2F)CNC/C1=C\c1ccccc1F	0.642 µM and 0.71 µM	2.05 µM and 2.01 µM	0.772 µM and 1.3 µM	2.73 µM and 2.8 µM	0.665 µM and 0.699 µM	6.57 µM and 12.8 µM	0.89 µM and 0.309 µM	3.22 µM and 0.805 µM	0.935 µM and 1.91 µM	2.34 µM and 3.96 µM	0.707 µM and 0.531 µM	3.5 µM and 1.71 µM	0.269 µM and 0.87 µM	0.828 µM and 2.99 µM	2.53 µM and 2.77 µM	6.18 µM and 6.46 µM	0.837 µM and 0.783 µM	2.05 µM and 2.81 µM	0.567 µM and 0.753 µM	1.8 µM and 2.05 µM
Nc1ncnc2c1ncn2CC(O)C(=O)O (centres undefined)	–	> 100 µM	–	> 100 µM	–	> 100 µM	–	> 100 µM	–	> 100 µM	–	> 100 µM	–	> 100 µM	–	> 100 µM	–	> 100 µM	–	> 100 µM
C=CCNCCCN1C(=O)c2ccc3c4c(ccc(c24)C1=O)C(=O)N(CCCNCC=C)C3=O	0.311 µM	0.857 µM	0.336 µM	1.34 µM	1.74 µM	12.6 µM	0.298 µM	0.889 µM	0.596 µM	4.94 µM	0.2 µM	0.955 µM	0.584 µM	2.41 µM	0.364 µM	1.7 µM	0.399 µM	1.78 µM	0.327 µM	2.29 µM
COc1ccc(-c2nnc(SCC(=O)Nc3ccc(/C(C)=N\O)cc3)n2-c2ccccc2)cc1OC	24.9 µM	> 100 µM	21.4 µM	> 100 µM	> 100 µM	> 100 µM	7.87 µM	> 100 µM	> 100 µM	> 100 µM	3.39 µM	37.7 µM	4.77 µM	38.9 µM	5.04 µM	28.8 µM	26.2 µM	> 100 µM	> 100 µM	> 100 µM
Cc1nn(-c2ccccc2)c2c1CC(=O)Nc1ccccc1-2	0.355 µM	> 100 µM	0.17 µM	3.75 µM and 0.593 µM	–	3.73 µM	0.0805 µM	2.92 µM and 0.552 µM	–	> 100 µM	–	3.06 µM	0.173 µM	7.8 µM and 0.855 µM	0.387 µM	> 100 µM	–	> 100 µM	1.11 µM	> 100 µM
CN(c1ccc(NC(=O)Nc2ccc(OC(F)(F)F)cc2)cc1)c1ccnc(Nc2cccc(S(N)(=O)=O)c2)n1	3.26 µM	6.46 µM	3.41 µM	7.36 µM	12.6 µM	25 µM	3.05 µM	6.69 µM	5.47 µM	13.7 µM	0.861 µM	6.48 µM	0.591 µM	5.47 µM	4.57 µM	9.7 µM	2.27 µM	11.5 µM	4.63 µM	11.9 µM
O=Cc1cn(Cc2cccc(Cl)c2)c2ccccc12	12.5 µM	25 µM	20.3 µM	45.7 µM	7.99 µM	28.2 µM	2.7 µM	16.6 µM	0.0263 µM	0.504 µM	0.948 µM	14.2 µM	14.7 µM	28 µM	7.7 µM	26.4 µM	10.7 µM	23.5 µM	5.49 µM	21.1 µM
CN1CCN(c2nc(NCCCCNc3ccnc4cc(Cl)ccc34)c3ccccc3n2)CC1	7 µM	21.7 µM	2.82 µM	9.32 µM	19 µM	56.1 µM	5.36 µM	22.6 µM	2.98 µM	15.8 µM	1.84 µM	3.73 µM	1.62 µM	3.25 µM	2.11 µM	4.48 µM	4.73 µM	20 µM	1.65 µM	3.54 µM
O=C1C=C[C@@]23C[C@@H](Nc4c(O)c5c6c(c42)=NCCC=6C=N5)SC3=C1	17.1 µM	30.9 µM	–	3.13 µM	2.88 µM	10.1 µM	1.5 µM	3.76 µM	5.13 µM	9.5 µM	6.68 µM	19.3 µM	3.08 µM	9.58 µM	1.94 µM	4.03 µM	2.36 µM	5.16 µM	–	22.8 µM
Cn1ccnc1C(=O)/C=C/c1ccc(CC(=O)Nc2ccc(S(F)(F)(F)(F)F)cc2)cc1	2.25 µM	4.53 µM	3.43 µM	6.91 µM	3.53 µM	9.35 µM	2.18 µM	4.91 µM	2.12 µM	5.1 µM	2.16 µM	4.73 µM	1.02 µM	3.26 µM	3.59 µM	10 µM	2.93 µM	7.17 µM	2.22 µM	4.35 µM
Cn1c(=O)c(Oc2ccc(F)cc2F)cc2cnc(NC(CO)CO)nc21	> 25 µM	> 25 µM	> 25 µM	> 25 µM	> 25 µM	> 25 µM	> 25 µM	> 25 µM	> 25 µM	> 25 µM	> 25 µM	> 25 µM	> 25 µM	> 25 µM	> 25 µM	> 25 µM	> 25 µM	> 25 µM	> 25 µM	> 25 µM
CN(CC(=O)O)c1ccc(/C=C/c2ccnc3ccccc23)cc1	–	> 100 µM	–	26.5 µM	–	> 100 µM	–	> 100 µM	–	94 µM	–	54.5 µM	–	> 100 µM	–	44.6 µM	–	92.8 µM	–	54 µM
C/C(=C\c1ccn(-c2ccc(N)c(F)c2)n1)[C@@H]1C[C@@H]2O[C@]2(C)CCC[C@H](C)[C@H](O)[C@@H](C)C(=O)C(C)(C)[C@@H](O)CC(=O)O1	0.0155 µM	0.121 µM	0.00973 µM	0.0321 µM	0.0943 µM	> 50 µM	0.00815 µM	0.0747 µM	0.0472 µM	> 50 µM	0.0205 µM	> 50 µM	0.012 µM	0.11 µM	0.0321 µM	> 50 µM	0.0389 µM	> 50 µM	0.0982 µM	> 50 µM
